From ChEMBL document CHEMBL3098081, “Synthesis and anticancer potential of benzothiazole linked phenylpyridopyrimidinones and their diones as mitochondrial apoptotic inducers” (Bioorg Med Chem Lett, 2014)

Columns and labels:
MCF7 = test: cells; details: Homo sapiens, MCF7, 48 h
Description: Cytotoxicity against human MCF7 cells after 48 hrs by MTT assay

DU-145 = test: Cytotoxicity against human DU145 cells after 48 hrs by MTT assay; format: functional, cell-based; details: DU-145, 48 h
B16 = test: Cytotoxicity against mouse B16 cells after 48 hrs by MTT assay; format: functional, cell-based; details: B16, 48 h
[1] = Cytotoxicity against human ME180 cells after 48 hrs by MTT assay; format: functional, cell-based; details: ME-180, 48 h

Row | SMILES | IC50 (MCF7) | IC50 (DU-145) | IC50 (B16) | IC50 [1]
1 | COc1cc(-n2c(=O)n(-c3nc4ccc([N+](=O)[O-])cc4s3)c(=O)c3cccnc32)cc(OC)c1OC | > 20 µM | > 20 µM | 19.9 µM | > 20 µM
2 | O=c1[nH]cc(F)c(=O)[nH]1 [FLUOROURACIL] | 3.5 µM | – | 4.2 µM | 4.9 µM
